What all share (assay type): functional, cell-based
One series deals with T1, Androgen receptor (Homo sapiens, UniProt P10275).
T1 sequence (P10275 whole entry): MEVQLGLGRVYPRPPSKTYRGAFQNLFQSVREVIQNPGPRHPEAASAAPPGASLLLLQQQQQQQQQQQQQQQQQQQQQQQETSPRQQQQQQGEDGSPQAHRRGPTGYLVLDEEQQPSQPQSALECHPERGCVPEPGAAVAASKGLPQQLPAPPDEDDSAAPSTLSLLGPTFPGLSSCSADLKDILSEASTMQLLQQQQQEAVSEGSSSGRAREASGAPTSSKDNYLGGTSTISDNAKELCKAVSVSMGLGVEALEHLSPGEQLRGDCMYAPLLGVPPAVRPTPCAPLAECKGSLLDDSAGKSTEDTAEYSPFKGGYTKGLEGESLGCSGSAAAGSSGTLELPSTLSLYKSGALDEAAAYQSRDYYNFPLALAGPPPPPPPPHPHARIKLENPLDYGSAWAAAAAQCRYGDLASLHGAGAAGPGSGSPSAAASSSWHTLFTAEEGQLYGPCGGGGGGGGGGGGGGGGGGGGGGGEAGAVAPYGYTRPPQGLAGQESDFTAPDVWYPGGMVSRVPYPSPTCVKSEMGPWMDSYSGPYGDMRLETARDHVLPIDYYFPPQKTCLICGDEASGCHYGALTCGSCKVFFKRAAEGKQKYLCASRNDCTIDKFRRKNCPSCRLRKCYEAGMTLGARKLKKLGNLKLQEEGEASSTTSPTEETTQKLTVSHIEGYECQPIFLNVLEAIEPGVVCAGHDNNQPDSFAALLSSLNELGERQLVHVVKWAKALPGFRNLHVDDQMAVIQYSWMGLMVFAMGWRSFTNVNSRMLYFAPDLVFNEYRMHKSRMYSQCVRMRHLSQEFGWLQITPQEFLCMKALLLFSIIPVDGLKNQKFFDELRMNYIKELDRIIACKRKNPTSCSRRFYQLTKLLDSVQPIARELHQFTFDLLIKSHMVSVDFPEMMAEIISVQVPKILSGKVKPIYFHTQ
As to the kind of experiment: Agonist activity at androgen receptor-LBD expressed in HEK293 cells assessed as Gal4-DBD interaction by cellular mammalian one hybrid assay.

Series [1] deals with T2, Estrogen receptor (Homo sapiens) (UniProt P03372).
T2 sequence (whole entry): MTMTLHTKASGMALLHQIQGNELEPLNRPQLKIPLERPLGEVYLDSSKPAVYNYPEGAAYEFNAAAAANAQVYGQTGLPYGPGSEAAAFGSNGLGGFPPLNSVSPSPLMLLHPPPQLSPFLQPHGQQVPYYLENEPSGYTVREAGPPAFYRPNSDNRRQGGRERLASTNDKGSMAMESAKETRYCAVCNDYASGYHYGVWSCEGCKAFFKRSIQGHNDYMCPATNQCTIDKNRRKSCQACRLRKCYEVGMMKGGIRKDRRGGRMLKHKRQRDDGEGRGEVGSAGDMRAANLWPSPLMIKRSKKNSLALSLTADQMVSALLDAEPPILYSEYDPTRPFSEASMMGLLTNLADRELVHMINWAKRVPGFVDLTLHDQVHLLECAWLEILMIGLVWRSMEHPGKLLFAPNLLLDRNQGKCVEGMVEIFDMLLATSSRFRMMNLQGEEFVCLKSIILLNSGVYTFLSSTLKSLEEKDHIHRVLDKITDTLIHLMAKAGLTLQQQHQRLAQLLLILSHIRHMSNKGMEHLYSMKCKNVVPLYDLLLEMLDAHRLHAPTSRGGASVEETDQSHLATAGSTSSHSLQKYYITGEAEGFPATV
As to the kind of experiment: Agonist activity at ERalpha-LBD expressed in HEK293 cells assessed as Gal4-DBD interaction by cellular mammalian one hybrid assay relative to 17-beta-estradiol.

Series [2] concerns the target T3, Peroxisome proliferator-activated receptor gamma (Homo sapiens) (UniProt P37231).
T3 sequence (whole entry): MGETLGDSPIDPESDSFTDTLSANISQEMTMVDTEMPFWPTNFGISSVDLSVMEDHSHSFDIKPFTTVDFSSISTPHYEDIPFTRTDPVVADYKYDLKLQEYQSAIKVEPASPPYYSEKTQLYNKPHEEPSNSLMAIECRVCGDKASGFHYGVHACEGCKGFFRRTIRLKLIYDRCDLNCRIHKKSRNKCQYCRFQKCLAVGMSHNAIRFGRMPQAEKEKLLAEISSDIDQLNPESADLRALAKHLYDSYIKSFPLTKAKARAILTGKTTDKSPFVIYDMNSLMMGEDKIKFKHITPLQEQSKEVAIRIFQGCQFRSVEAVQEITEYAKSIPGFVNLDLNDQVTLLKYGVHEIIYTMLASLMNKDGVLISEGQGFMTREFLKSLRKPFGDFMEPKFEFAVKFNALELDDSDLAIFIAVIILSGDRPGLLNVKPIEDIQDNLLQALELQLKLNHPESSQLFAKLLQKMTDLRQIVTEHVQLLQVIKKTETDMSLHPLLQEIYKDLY
As to the kind of experiment: Agonist activity at PPARgamma-LBD expressed in HEK293 cells assessed as Gal4-DBD interaction by cellular mammalian one hybrid assay relative to rosiglitazone.

Series [3] addresses T4, CAR (nuclear receptor subfamily 1 group I member 3) (Homo sapiens, UniProt Q14994).
T4 sequence (Q14994 whole entry): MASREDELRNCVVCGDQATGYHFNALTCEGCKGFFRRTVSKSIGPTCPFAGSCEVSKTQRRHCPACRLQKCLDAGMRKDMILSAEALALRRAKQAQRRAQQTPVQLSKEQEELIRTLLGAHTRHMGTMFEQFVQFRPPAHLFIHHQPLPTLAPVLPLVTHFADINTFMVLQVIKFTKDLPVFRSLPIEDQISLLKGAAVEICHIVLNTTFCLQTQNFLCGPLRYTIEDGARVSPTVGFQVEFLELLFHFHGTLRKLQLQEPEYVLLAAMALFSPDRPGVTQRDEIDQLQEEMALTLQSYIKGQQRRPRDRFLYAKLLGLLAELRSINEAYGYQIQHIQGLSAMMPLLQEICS
As to the kind of experiment: Agonist activity at CAR-LBD expressed in HEK293 cells assessed as Gal4-DBD interaction by cellular mammalian one hybrid assay relative to androstane. The settings on record: HEK293 cells expressing CAR-LBD, read-out: Efficacy.

Molecules are shown by their SMILES.

This is an account of results in ChEMBL document CHEMBL1208782, “Synthesis and pharmacological validation of a novel series of non-steroidal FXR agonists” (Bioorg Med Chem Lett, 2010).

Broadly, the EC50 is the concentration giving half of the maximal effect.

For the molecule `CC(C)c1onc(-c2c(Cl)cccc2Cl)c1COc1ccc(N(C)Cc2ccc(C(=O)O)cc2)c(C(F)(F)F)n1`, the EC50 at Androgen receptor was more than 10 µM. Besides, the Efficacy in series [1] and in series [2] was 0% each time. Moreover, in series [3], the Emax is 0%.
For `CN(Cc1cccc(C(=O)O)c1)c1ccc(OCc2c(-c3c(Cl)cccc3Cl)noc2C2CC2)nc1C(F)(F)F`, at Androgen receptor, the EC50 is more than 10 µM. The Efficacy was 24% in series [1] and 10% in series [2]. Besides, the Emax in series [3] turned out to be 0%.
The corresponding values for `CN(Cc1ccc(C(=O)O)cc1)c1ccc(OCc2c(-c3c(Cl)cccc3Cl)noc2C2CC2)nc1C(F)(F)F` are more than 10 µM, 0%, 0% and 0%.
